Measured values from paper PMC11911254 (Pharmacological Reports, 2025).
Several values for one entry are separate records, joined by “and”; a condition that tells them apart may be missing. Equal values may be shown once.

Assay: Concentration of paracetamol and its metabolites in plasma, CSF and brain cortex by LC-MS/MS
Method: Drug injection protocol is illustrated in Fig. 1.
Male and female postnatal P4 pups and 7–8 week-old non-pregnant females were used. […] In combination therapy experiments, this dose was accompanied by one of the 7 other drugs (Table 1). For all experiments, animals were terminally anesthetized 30 min after the drug injection using inhaled isoflurane (IsoFlo 100% w/w, Abbott Laboratories), and blood, CSF, and brain samples were collected. Blood was collected directly from the right cardiac ventricle, CSF from the cisterna magna, and cortical brain samples from the frontal/parietal lobes dorsal to the lateral ventricles as described previously.
Pregnant E19 dams were anesthetized with ip urethane injection (25% w/v urethane, Sigma, 1 ml/100 g body weight) and placed on a 39 °C heating pad in the supine position. An endotracheal catheter was inserted to maintain a clear airway. Catheters were inserted into the femoral vein and artery for iv drug administration and arterial blood sampling respectively. The cannula was flushed with 0.5 ml of heparinized saline (Hospira Inc, 5,000 units/ml) after drug administration and following each arterial blood sample. Following drug administration to the dams, fetuses were exteriorized and serially collected starting at 30 min post-maternal injection. […] At collection, the viability of each fetus was assessed (presence of a heartbeat, the colour of the umbilical vessels) and blood, CSF, and brain samples were taken along with a time-matched maternal blood sample from the femoral artery. At the end of the experiment, a final maternal blood sample was taken directly from the left cardiac ventricle, and CSF and brain samples were collected.
This method has been described previously for valproate, lamotrigine, and olanzapine and was applied in the present study. Simultaneous quantification was performed for all compounds in plasma, brain, and CSF samples following the addition of respective stable isotope-labeled internal standards.
Linear response range was determined in untreated control rat plasma for each compound at 0.1, 1, 10, 50, 100, 200, 400, and 800 µg/ml.

[1] = E19 rats, maternal iv paracetamol 15 mg/kg + cimetidine 11 mg/kg (PARA+CIM, n=10), median (IQR)
[2] = E19 rats, maternal iv paracetamol 15 mg/kg + digoxin 0.03 mg/kg (PARA+DIG, n=9), median (IQR)
[3] = E19 rats, maternal iv paracetamol 15 mg/kg + lamotrigine 6 mg/kg (PARA+LTG, n=10), median (IQR)
[4] = E19 rats, maternal iv paracetamol 15 mg/kg + olanzapine 0.15 mg/kg (PARA+OLZ, n=10), median (IQR), all values if <3 detected
[5] = E19 rats, maternal iv paracetamol 15 mg/kg + valproate 30 mg/kg (PARA+VPA, n=10), median (IQR)
[6] = E19 rats, maternal iv paracetamol 15 mg/kg + valproate 30 mg/kg (PARA+VPA, n=10), median (IQR), all values if <3 detected
[7] = E19 rats, maternal iv paracetamol 15 mg/kg monotherapy (PARA, n=10), median (IQR)
[8] = P4 rats, 30 min after ip paracetamol 15 mg/kg + cimetidine 11 mg/kg (PARA+CIM, n=4), median (IQR)
[9] = P4 rats, 30 min after ip paracetamol 15 mg/kg + digoxin 0.03 mg/kg (PARA+DIG, n=4), median (IQR)
[10] = P4 rats, 30 min after ip paracetamol 15 mg/kg + fluvoxamine 1.5 mg/kg (PARA+FLX, n=4), median (IQR)
[11] = P4 rats, 30 min after ip paracetamol 15 mg/kg + fluvoxamine 1.5 mg/kg (PARA+FLX, n=4), median (IQR) or individual values
[12] = P4 rats, 30 min after ip paracetamol 15 mg/kg + lithium 3.2 mg/kg (PARA+Li, n=4), median (IQR)
[13] = P4 rats, 30 min after ip paracetamol 15 mg/kg + olanzapine 0.15 mg/kg (PARA+OLZ, n=4), median (IQR)
[14] = P4 rats, 30 min after ip paracetamol 15 mg/kg monotherapy (PARA, n=4), median (IQR)
[15] = non-pregnant adult rats, 30 min after ip paracetamol 15 mg/kg + fluvoxamine 1.5 mg/kg (PARA+FLX, n=4), median (IQR)
[16] = non-pregnant adult rats, 30 min after ip paracetamol 15 mg/kg + fluvoxamine 1.5 mg/kg (PARA+FLX, n=4), median (IQR), individual values if <3 samples
[17] = non-pregnant adult rats, 30 min after ip paracetamol 15 mg/kg + olanzapine 0.15 mg/kg (PARA+OLZ, n=4), median (IQR)
[18] = non-pregnant adult rats, 30 min after ip paracetamol 15 mg/kg monotherapy (PARA, n=6), median (IQR)
[19] = P4 rats, 30 min after ip paracetamol 15 mg/kg + lamotrigine 6 mg/kg (PARA+LTG, n=5), median (IQR)
[20] = P4 rats, 30 min after ip paracetamol 15 mg/kg + valproate 30 mg/kg (PARA+VPA, n=4), median (IQR) or individual values
[21] = non-pregnant adult rats, 30 min after ip paracetamol 15 mg/kg + digoxin 0.03 mg/kg (PARA+DIG, n=3), median (IQR)
[22] = non-pregnant adult rats, 30 min after ip paracetamol 15 mg/kg + lamotrigine 6 mg/kg (PARA+LTG, n=3), median (IQR), individual values if <3 samples

SMILES: CC(=O)Nc1ccc(O[C@@H]2O[C@H](C(=O)O)[C@@H](O)[C@H](O)[C@H]2O)cc1 [Paracetamol-Glucuronide, paracetamol-glucuronide]
- Concentration in CSF [1]: N.D. (N.D. (not detected) are values <0.01μg/ml)
- Concentration in brain [1]: N.D. (N.D. (not detected) are values <0.01μg/ml)
- Concentration in CSF [2]: 0.2 µg/mL
- Concentration in brain [2]: 0.5 µg/mL
- Concentration in CSF [3]: N.D. (N.D. (not detected) are values <0.01μg/ml)
- Concentration in brain [3]: N.D. (N.D. (not detected) are values <0.01μg/ml)
- Concentration in brain [4]: 0.7 µg/mL
- Concentration in CSF [5]: N.D. (N.D. (not detected) are values <0.01μg/ml)
- Concentration in brain [6]: N.D. (N.D. (not detected) are values <0.01μg/ml)
- Concentration in CSF [7]: N.D. (N.D. (not detected) are values <0.01μg/ml)
- Concentration in brain [7]: N.D. (N.D. (not detected) are values <0.01μg/ml)
- Concentration in CSF [8]: 0.2 (0.04) µg/ml
- Concentration in CSF [9]: 0.1 (0.03) µg/ml
- Concentration in brain [9]: 0.1 µg/mL
- Concentration in CSF [10]: 0.2 (2) µg/ml
- Concentration in brain [11]: 0.1 µg/mL
- Concentration in CSF [12]: 0.1 (0.05) µg/ml
- Concentration in brain [12]: 0.2 µg/mL
- Concentration in CSF [13]: 0.5 µg/mL
- Concentration in CSF [14]: 0.2 (0.1) µg/ml
- Concentration in CSF [15]: 0.05 (0.04) µg/ml
- Concentration in brain [16]: 0.2 µg/mL and 1 µg/mL
- Concentration in CSF [17]: 0.1 µg/mL
- Concentration in brain [17]: 0.1 µg/mL
- Concentration in brain [18]: 2.0 µg/mL
- change in plasma concentration following combination therapy (rat, in vivo): no significant changes

SMILES: CC(=O)Nc1ccc(OS(=O)(=O)O)cc1 [Paracetamol-Sulfate, paracetamol-sulfate]
- Concentration in CSF [1]: 0.06 (0.04) µg/ml
- Concentration in brain [1]: 0.02 (0.02) µg/ml
- Concentration in CSF [2]: 0.05 (0.04) µg/ml
- Concentration in brain [2]: 0.01 (0.01) µg/ml
- Concentration in plasma [2]: 0.9 (0.4) µg/ml
- Concentration in plasma (E19 rats, maternal iv paracetamol 15 mg/kg + digoxin 0.03 mg/kg (PARA+DIG, n=9), median (IQR), listed as paracetamol-sulfate): 0.9 µg/mL
- Concentration in CSF [3]: 0.08 (0.05) µg/ml
- Concentration in brain [3]: 0.02 (0.02) µg/ml
- Concentration in plasma [3]: 1.1 (0.4) µg/ml
- Concentration in plasma (E19 rats, maternal iv paracetamol 15 mg/kg + olanzapine 0.15 mg/kg (PARA+OLZ, n=10), median (IQR)): 1.4 (0.5) µg/ml
- Concentration in CSF [4]: 0.09 (0.06) µg/ml
- Concentration in brain [4]: 0.05 (0.03) µg/ml
- Concentration in CSF [5]: 0.06 (0.03) µg/ml
- Concentration in plasma [6]: 0.9 (0.3) µg/ml
- Concentration in plasma (E19 rats, maternal iv paracetamol 15 mg/kg + valproate 30 mg/kg (PARA+VPA, n=10), median (IQR), all values if <3 detected, listed as paracetamol-sulfate): 0.9 µg/mL
- Concentration in CSF [7]: 0.09 (0.05) µg/ml
- Concentration in brain [7]: 0.04 (0.03) µg/ml
- Concentration in plasma [7]: 1.5 (0.4) µg/ml
- Concentration in plasma (E19 rats, maternal iv paracetamol 15 mg/kg monotherapy (PARA, n=10), median (IQR), listed as paracetamol-sulfate): 1.5 µg/mL
- Concentration in plasma (P4, monotherapy and combination therapy with any of the drugs investigated): around 5 µg/ml
- Concentration in CSF [8]: 0.1 (0.02) µg/ml
- Concentration in brain [8]: 0.06 (0.02) µg/ml
- Concentration in plasma [8]: 7.5 (1.7) µg/ml
- Concentration in CSF [9]: 0.1 (0.02) µg/ml
- Concentration in brain [9]: 0.07 (0.04) µg/ml
- Concentration in plasma [9]: 7.6 (3.3) µg/ml
- Concentration in CSF [10]: 0.1 (1.6) µg/ml
- Concentration in plasma [10]: 5.7 (1.4) µg/ml
- Concentration in brain [11]: 0.04 µg/mL and 0.05 µg/mL
- Concentration in CSF [19]: 0.07 (0.02) µg/ml
- Concentration in brain [19]: 0.06 (0.02) µg/ml
- Concentration in plasma [19]: 3.8 (0.9) µg/ml
- Concentration in CSF [12]: 0.1 (0.04) µg/ml
- Concentration in brain [12]: 0.08 (0.01) µg/ml
- Concentration in plasma [12]: 7.2 (1.2) µg/ml
- Concentration in CSF [13]: 0.05 ± 0.02 µg/mL
- Concentration in brain [13]: 0.02 µg/mL
- Concentration in plasma [13]: 2.7 (1.0) µg/ml
- Concentration in CSF (P4 rats, 30 min after ip paracetamol 15 mg/kg + valproate 30 mg/kg (PARA+VPA, n=4), median (IQR)): 0.06 (0.01) µg/ml
- Concentration in brain [20]: 0.05 µg/mL
- Concentration in plasma [20]: 4.1 (2.1) µg/ml
- Concentration in CSF [14]: 0.09 (0.05) µg/ml
- Concentration in brain [14]: 0.09 (0.03) µg/ml
- Concentration in plasma [14]: 3.1 (1.8) µg/ml
- change in plasma concentration following combination therapy (adults, any of the drugs investigated, Kruskal-Wallis test): no significant changes
- Concentration in brain (non-pregnant adult rats, 30 min after ip paracetamol 15 mg/kg + cimetidine 11 mg/kg (PARA+CIM, n=3), median (IQR)): 0.2 µg/mL
- Concentration in plasma (non-pregnant adult rats, 30 min after ip paracetamol 15 mg/kg + cimetidine 11 mg/kg (PARA+CIM, n=3), median (IQR), individual values if <3 samples): 5.5 (1.4) µg/ml
- Concentration in CSF [21]: 0.02 µg/mL
- Concentration in plasma [21]: 7.2 (2.2) µg/ml
- Concentration in brain (non-pregnant adult rats, 30 min after ip paracetamol 15 mg/kg + digoxin 0.03 mg/kg (PARA+DIG, n=3), median (IQR), individual values if <3 samples): 0.02 µg/mL
- Concentration in CSF [15]: 0.07 (0.03) µg/ml
- Concentration in plasma [15]: 12.9 (1.0) µg/ml
- Concentration in brain [16]: 0.1 (0.4) µg/ml
- Concentration in CSF [22]: 0.02 µg/mL and 0.04 µg/mL
- Concentration in brain [22]: 0.1 µg/mL
- Concentration in plasma [22]: 11.5 (0.7) µg/ml
- Concentration in brain [17]: 0.2 (0.2) µg/ml
- Concentration in plasma [17]: 14.8 (2.7) µg/ml
- Concentration in brain (non-pregnant adult rats, 30 min after ip paracetamol 15 mg/kg + valproate 30 mg/kg (PARA+VPA, n=3), median (IQR)): 0.1 µg/mL
- Concentration in plasma (non-pregnant adult rats, 30 min after ip paracetamol 15 mg/kg + valproate 30 mg/kg (PARA+VPA, n=3), median (IQR), individual values if <3 samples): 12.1 (0.4) µg/ml
- Concentration in CSF [18]: 0.02 (0.01) µg/ml
- Concentration in brain [18]: 0.1 (0.1) µg/ml
- Concentration in plasma [18]: 8.8 (5.8) µg/ml
